Data reported in patent publication US20090264383A1, “Inhibitor of Adenylyl Cyclase for Treating a Disorder of the Circadian Rhythm” (Medical Research Council, priority 2006, published 2009).
“Also recorded” adds a separate entry of the source.

Assays:
[1] = test system: organotypic SCN slices; assay: Bioluminescence recording of circadian gene expression in organotypic SCN slices (mPer1::luc / PER2::LUC); type: cell-based, mice; settings: for effect on circadian period / effect on circadian amplitude / gene expression: wild-type mPer1::luc / PER2::LUC SCN slices; for synchrony of SCN neurons (CCD imaging): 1.0 μM MDL for over 7 days, PER2::LUC slice; for rescue of circadian gene expression in MDL-treated SCN slices: PER2-LUC SCN slices pre-treated with MDL (2.5 μM), Epac agonist 100 μM
Protocol: (§1) Per1::luciferase and; Per2-luc transgenic mice were used. For organotypic slice culture, brains were removed from pups 5-10 days old and sectioned at 300 um with a McIlwain “Tissue Chopper.” Slices were sorted and trimmed to contain principally SCN tissue and placed onto a Millipore membrane insert (PICMORG) for culture at 37° C. in 5% CO2 as described previously (Gainer et al, 1998).
Recordings of luciferase activity from organotypic slices of SCN or peripheral tissues were made from 5-7 day old pups from PER2::LUC and, Per1::LUC mice using either photomultiplier assemblies for whole tissue emission or CCD camera for single SCN cell imaging (Hamamatsu Photonics Ltd, U.K.) as described May Wood et al 2006 Curr. Biol. Vol. 16 pp 599-605. cAMP-ELISA kit was purchased from R&D systems (Wiesbaden, Germany). NIH 3T3 cells were cultured as described (Kume et al 1999 Cell Vol 98 pp 193-205) and transfected using Genejuice (Novagen, San Diego, Calif.). […] Drugs were solubilized in medium or dimethylsulfoxide (DMSO) to make stock solutions 50-1000× the working solutions. [DMSO] was never greater than 0.4%. RNA-interference against Epac1 and Epac 2 used pre-validated sequences as instructed (Validated Stealth RNAi, Invitrogen, CA). Western Blots were performed as Reddy et al (2006 Curr. Biol. Vol 16 oo 1107-15). Behavioural rhythms, recorded by running wheel and passive infra-red movement detectors, were analysed in Clocklab (Actimetrics, Evanston Ill.). Central cannulae directed stereotaxically at the SCN and sub-cutaneous minipumps (Alzet® model 1002 pump and brain infusion kit II) for drug infusion were fitted as instructed (Durect Corp. Cupertino, Calif.).
(§2) Statistical analysis was performed using Prism GraphPad™ and Statview™. Periods were calculated over ≧3 days recoding For comparative purposes, transcriptional amplitude from PMT recordings was calculated as 100× (post-treatment emission peak-trough/pre-treatment peak-trough). In all cases error bars indicate SEM about the mean where n≧3.

[2] = test system: Clock mutant SCN; assay: Circadian period in Clock heterozygous and homozygous mutant SCN; type: cell-based, mice
Protocol: (§3) Recordings of luciferase activity from organotypic slices of SCN or peripheral tissues were made from 5-7 day old pups from PER2::LUC and, Per1::LUC mice using either photomultiplier assemblies for whole tissue emission or CCD camera for single SCN cell imaging (Hamamatsu Photonics Ltd, U.K.) as described May Wood et al 2006 Curr. Biol. Vol. 16 pp 599-605. cAMP-ELISA kit was purchased from R&D systems (Wiesbaden, Germany). NIH 3T3 cells were cultured as described (Kume et al 1999 Cell Vol 98 pp 193-205) and transfected using Genejuice (Novagen, San Diego, Calif.). All drugs were purchased from Sigma-Aldrich (Poole, UK) except PKA/Epac-active cAMP analogues (Axxora; Grünberg; Germany) and KT5720 (Calbiochem, Nottingbam, UK). Drugs were solubilized in medium or dimethylsulfoxide (DMSO) to make stock solutions 50-1000× the working solutions. [DMSO] was never greater than 0.4%. RNA-interference against Epac1 and Epac 2 used pre-validated sequences as instructed (Validated Stealth RNAi, Invitrogen, CA). Western Blots were performed as Reddy et al (2006 Curr. Biol. Vol 16 oo 1107-15). Behavioural rhythms, recorded by running wheel and passive infra-red movement detectors, were analysed in Clocklab (Actimetrics, Evanston Ill.). […]

[3] = test system: NIH 3T3 cells; assay: Circadian gene expression in NIH 3T3 cells transfected with mBmal1::luc reporter; type: cell-based, mouse; settings: for effect on circadian period: 3T3 fibroblasts; for effect on circadian gene expression / output: mBmal1::luc reporter
Excerpt: Inhibition of the Gsα-binding site of AC caused a dose-dependent, reversible, dampening of circadian gene expression from Per1::luciferase organotypic SCN slice cultures, monitored by photomultiplier tubes. To determine the generality of this effect, we examined 3-T3 fibroblast cells. Abrogation of the endogenous oscillation of cAMP concentration stopped circadian gene expression as reported by Bmal1::luciferase reporter constructs P-site AC inhibition prolonged fibroblast period from ca. 21 hours to ca. 30 hours.
(§4) Recordings of luciferase activity from organotypic slices of SCN or peripheral tissues were made from 5-7 day old pups from PER2::LUC and, Per1::LUC mice using either photomultiplier assemblies for whole tissue emission or CCD camera for single SCN cell imaging (Hamamatsu Photonics Ltd, U.K.) as described May Wood et al 2006 Curr. Biol. Vol. 16 pp 599-605. cAMP-ELISA kit was purchased from R&D systems (Wiesbaden, Germany). NIH 3T3 cells were cultured as described (Kume et al 1999 Cell Vol 98 pp 193-205) and transfected using Genejuice (Novagen, San Diego, Calif.). All drugs were purchased from Sigma-Aldrich (Poole, UK) except PKA/Epac-active cAMP analogues (Axxora; Grünberg; Germany) and KT5720 (Calbiochem, Nottingbam, UK). Drugs were solubilized in medium or dimethylsulfoxide (DMSO) to make stock solutions 50-1000× the working solutions. [DMSO] was never greater than 0.4%. RNA-interference against Epac1 and Epac 2 used pre-validated sequences as instructed (Validated Stealth RNAi, Invitrogen, CA). Western Blots were performed as Reddy et al (2006 Curr. Biol. Vol 16 oo 1107-15). Behavioural rhythms, recorded by running wheel and passive infra-red movement detectors, were analysed in Clocklab (Actimetrics, Evanston Ill.). Central cannulae directed stereotaxically at the SCN and sub-cutaneous minipumps (Alzet® model 1002 pump and brain infusion kit II) for drug infusion were fitted as instructed (Durect Corp. Cupertino, Calif.).
as §2

[4] = test system: peripheral tissues; assay: Circadian recording in organotypic cultures of peripheral tissues from mPER2::LUC mice; type: cell-based
Protocol: as §3, with “RNA-interference against Epac1 and Epac 2 used pre-validated sequences as instructed (Validated Stealth RNAi, Invitrogen, CA). Western Blots were performed as Reddy et al (2006 Curr. Biol. Vol 16 oo 1107-15).” left out
Statistical analysis was performed using Prism GraphPad™ and Statview™. Periods were calculated over ≧3 days recoding For comparative purposes, transcriptional amplitude from PMT recordings was calculated as 100× (post-treatment emission peak-trough/pre-treatment peak-trough). […]

[5] = test system: cAMP levels; assay: cAMP ELISA in synchronised NIH 3T3 fibroblast cultures; type: cell-based, mouse; settings: for cAMP levels: MDL at highest doses used
Protocol: as §1, §4

[6] = test system: SCN; assay: Free-running period of wheel-running behaviour, THFA infused to SCN by minipump and central cannula; type: in vivo; settings: chronic central THFA vs vehicle; continuous dim red light; nine mice
Protocol: (a) Representative double-plotted, actograms of (left) vehicle- and (right) THFA-treated mice entrained to a photoschedule of 12 hours light (shaded) and 12 hours dark and fitted with osmotic mini-pump and central cannula directed at SCN (asterisk) Mice were then released into continuous dim-red light and free-running period determined Note longer period in THFA-treated mice.
as §3, with “[DMSO] was never greater than 0.4%. RNA-interference against Epac1 and Epac 2 used pre-validated sequences as instructed (Validated Stealth RNAi, Invitrogen, CA). Western Blots were performed as Reddy et al (2006 Curr. Biol. Vol 16 oo 1107-15).” left out

[7] = Water solubility; type: physicochemical
[8] = test system: intact human neutrophils; settings: Simchowitz et al 1983; cited from earlier work
[9] = test system: circadian period; settings: 0.3% lithium; 25% D2O; cited from earlier work
[10] = test system: JNK phosphorylation; assay: Western blot of 3T3 cell extracts (JNK and CREB phosphorylation); type: cell-based, mouse; settings: for JNK phosphorylation (pJNK): 3T3 cells, MDL 5.0 μm 40 hours, Epac agonist 100 μM, 2 hours; for CREB phosphorylation (pCREB): 3T3 cells given MDL, Epac agonist
Protocol: Epac had no effect on CREB phosphorylation.
as §4

[11] = test system: NIH 3T3 cells; assay: Luciferase expression from control non-circadian promoter in NIH 3T3 cells; type: cell-based, mouse
[12] = target: adenylyl cyclase; settings: irreversibly binds the Gsα site; cited from earlier work
[13] = test system: circadian clock; settings: administered in the evening; cited from earlier work

Question: Which “saturating concentration of period lengthening (one-site inhibition model)” value ([1]; SCN slices) does the source give for 9-(Tetrahydro-2′-furyl)adenine [THFA] here?
Answer: around 2 mM

Question: What about the “circadian period under combined AC and JNK inhibition” value ([1]; THFA together with JNK inhibition, SCN and fibroblast clockwork) of the same compound?
Answer: around 36 hours

Question: And the “period after removal of the drug” value ([1]; in vitro, after chronic incubation with THFA)?
Answer: approx. 24 hours

Question: And the circadian period ([1]; mPer1::luc and mPER2-LUC SCN slices, dose-dependent increase from ca. 24)?
Answer: ~31 h

Question: What about the “effect on circadian period” value [1] of the same compound?
Answer: reversible increase of circadian period; also recorded: Extended circadian period; also recorded: Reversible period lengthening; also recorded: period effect; also recorded: rapidly reversible upon drug washout; also recorded: increased period in individual neurons

Question: And the “effect on circadian period” value [2]?
Answer: prolongs circadian period; also recorded: additive to that of the Clock mutation

Question: And the “probable maximum period increase” value ([3]; 1.2 mM THFA)?
Answer: approximately 9 hours

Question: What about the circadian period ([3]; 1.2 mM THFA, untreated about 21 hours) of the same compound?
Answer: about 30 hours

Question: And the “effect on circadian period” value [3]?
Answer: Dose-dependent saturable period lengthening

Question: And the circadian period ([3]; fibroblasts transfected with mBmal::luc reporter, lengthening from ca. 21)?
Answer: ~31 h

Question: And the “effect on circadian period” value ([4]; 2 mM THFA, all peripheral tissues tested)?
Answer: lengthens period; also recorded: dramatic increase in circadian period; also recorded: increases period in all tissues tested

Question: What about the “basal cAMP levels” value ([5]; THFA) of the same compound?
Answer: maintains basal levels; also recorded: without affecting its nadir; also recorded: did not alter basal levels of cAMP

Question: What about the “peak cAMP levels” value ([5]; THFA) of the same compound?
Answer: suppresses peak levels; also recorded: reduces the detectable, endogenous, biphasic rise in cAMP; also recorded: attenuated peak levels

Question: What about the “free-running circadian period” value [6] of the same compound?
Answer: lengthens circadian period; also recorded: lengthening of free-running period; also recorded: significantly (p<0:01, t-test) lengthened

Question: What about the “water solubility” value [7] of the same compound?
Answer: water-soluble; also recorded: most readily water soluble

Question: And the “toxicity” value [8]?
Answer: non-toxic

Question: With `C[C@H]1O[C@@H](n2cnc3c(N)ncnc32)C[C@@H]1O` [2′,5′-dideoxyadenosine, 2′,5′-Dideoxyadenosine] as the compound, how does the “effect on circadian period” value [1] read?
Answer: Reversible period lengthening; also recorded: Period was lengthened

Question: And the solubility ([7]; water, read-out: water soluble up to)?
Answer: ≥ 125 mM

Question: Which lengthening of period [9] does the source give for `[2H]O[2H]` [D2O] here?
Answer: approximately 5%

Question: For `CC(C)Cn1c(=O)n(C)c(=O)c2[nH]cnc21` [IBMX], which “effect on circadian period” value [3] is on record?
Answer: lengthened period in fibroblasts

Question: What about the “effect of THFA combined with IBMX on circadian period” value ([3]; THFA 1 mM plus IBMX 300 uM) of the same compound?
Answer: did not enhance the effect of THFA

Question: For `CCCCCCOC(=O)[C@]1(O)C[C@@H]2O[C@@]1(C)n1c3ccccc3c3c4c(c5c6ccccc6n2c5c31)C(=O)NC4` [KT5720], which “effect on circadian amplitude / gene expression” value [1] is on record?
Answer: no significant effect

Question: What about the “effect on circadian period” value [1] of the same compound?
Answer: no significant effect

Question: For `Cl.c1ccc(C2CCCC2NC2=NCCCCCCCCCCC2)cc1` (stereo not drawn) [MDL-12,330A], which “synchrony of SCN neurons (CCD imaging)” value [1] is on record?
Answer: desynchronisation

Question: And the “synchrony of SCN neurons (CCD imaging)” value ([1]; listed as MDL)?
Answer: became desynchronised

Question: And the “effect on circadian amplitude / gene expression” value [1]?
Answer: reversible suppression of circadian protein expression; also recorded: reversible, dose-dependent dampening of circadian gene expression; also recorded: loss of circadian amplitude; also recorded: dampens transcriptional amplitude

Question: What about the “effect on circadian period” value [1] of the same compound?
Answer: not affected

Question: What about the “effect on circadian amplitude / gene expression” value ([1]; listed as MDL) of the same compound?
Answer: rapid, dose-dependent dampening of circadian cycling; also recorded: lost circadian amplitude

Question: What about the “effect on circadian gene expression / output” value [3] of the same compound?
Answer: dose dependent suppression of circadian gene expression

Question: What about the “effect on circadian gene expression / output” value ([3]; listed as MDL) of the same compound?
Answer: Reversible, dose-dependent suppression of circadian output

Question: What about the “effect on circadian output” value ([4]; organotypic kidney slices from mPER-2-LUC mice) of the same compound?
Answer: Reversible, dose-dependent suppression of circadian output

Question: What about the cAMP levels [5] of the same compound?
Answer: loss of measurable cAMP

Question: What about the cAMP levels ([5]; listed as MDL) of the same compound?
Answer: suppressed cAMP levels to below the sensitivity of detection

Question: What about the “JNK phosphorylation (pJNK)” value [10] of the same compound?
Answer: decline in JNK phosphorylation

Question: What about the “luciferase expression from control, non-circadian promoter” value [11] of the same compound?
Answer: no effect on luciferase expression

Question: And the IC50 [12]?
Answer: 250 µM

Question: With `COc1ccc2[nH]cc(CCNC(C)=O)c2c1` [Melatonin] as the compound, how does the “phase resetting effect on the circadian clock” value [13] read?
Answer: approximately 30 minutes/day

Question: What does the source list for `COC1C2OP(O)(=S)OCC2OC1n1c(Sc2ccc(Cl)cc2)nc2c(N)ncnc21` (stereo not drawn) [Sp-8-CPT-2′-O-Me-cAMPS]?
Answer: rescue of circadian gene expression in MDL-treated SCN slices [1]: dramatically restored circadian output; rescue of circadian gene expression in MDL-treated SCN slices ([1]; listed as Epac agonist): can be rescued; also recorded: acute activation and synchronisation of cellular circadian gene expression; also recorded: significantly increased luciferase activity; also recorded: transiently activated and re-synchronised circadian gene expression; effect on circadian amplitude / gene expression [1]: no significant effect; effect on circadian period [1]: no significant effect; CREB phosphorylation (pCREB) ([10]; listed as Epac): no effect; CREB phosphorylation (pCREB) ([10]; listed as Epac agonist): not pCREB; JNK phosphorylation (pJNK) ([10]; listed as Epac): significant increase in JNK activation; JNK phosphorylation (pJNK) ([10]; listed as Epac agonist): reverses the decline in JNK phosphorylation; also recorded: increased pJNK
